US20240000724A1, “Compositions and Methods for Treatment or Prevention of Oral Mucositis” (PATHWAYS BIOSCIENCE, LLC, priority 2015, published 2024)

Test system: Nrf2 (HepG2 cells)
Assay: Nrf2 induction by PB201 analogs in HepG2 Nrf2/ARE promoter-luciferase reporter cells
Type: cell-based, human
Conditions: 0-7 ug/mL, read 24 h after start of stimulation
Description: In this Example, the effects of compounds that are structurally related to 1,3-diphenyl-1,3-propanedione are investigated.

Row | Structure (SMILES) | Nrf2 activation
1 | O=C(CCCC(=O)c1ccccc1)c1ccccc1 [1,3-dibenzoylpropane] | activated Nrf2
2 | O=C(c1ccccc1)C(Br)C(=O)c1ccccc1 [2-bromo-1,3-diphenyl-1,3-propanedione] | activated Nrf2
